Data published in article PMC5872235 (2018).
≈ marks a conversion by molar mass, not a printed value. Read-outs that look alike come from different tables or passages of the source. Peptide text beside a SMILES is read from it.

What was measured:
[1] = test system: S. aureus in control group; assay type: cell-based, Staphylococcus aureus
[2] = test system: S. aureus in patients with atopic dermatitis; assay type: cell-based, Staphylococcus aureus
[3] = test system: Staphylococcus aureus strains isolated from control group
[4] = test system: Superantigen positive Staphylococcus aureus (n = 52); experiment: microbe, parasite or virus in culture; conditions: 18 h
[5] = test system: Staphylococcus aureus strains isolated from control group; experiment: microbe, parasite or virus in culture; conditions: 18 h
[6] = test system: Staphylococcus aureus strains isolated from atopic dermatitis (AD) patients; experiment: microbe, parasite or virus in culture; conditions: 18 h
[7] = test system: Superantigen negative Staphylococcus aureus (n = 48); experiment: microbe, parasite or virus in culture; conditions: 18 h
[8] = test system: Superantigen positive Staphylococcus aureus (n = 52)
[9] = test system: Superantigen negative Staphylococcus aureus (n = 48)
[10] = test system: Staphylococcus aureus strains isolated from atopic dermatitis (AD) patients
[11] = test system: vancomycin intermediate S. aureus (VISA) isolates; conditions: cited from earlier work
[12] = Superantigen positive (n = 52, 18 h)
[13] = Superantigen negative (n = 48, 18 h)
[14] = strains isolated from control group, 18 h
[15] = strains isolated from atopic dermatitis (AD) patients, 18 h

| Compound | Resistance (%), resistant strains [2] [%] | MIC Range [3] [µg/mL] | MIC50 [4] [µg/mL] | MIC90 [4] [µg/mL] | MIC50 [5] [µg/mL] | MIC90 [5] [µg/mL] | MIC50 [6] [µg/mL] | MIC90 [6] [µg/mL] | MIC50 [7] [µg/mL] | MIC90 [7] [µg/mL] | MIC50 [8, 12] [µg/mL] | MIC90 [8, 12] [µg/mL] | MIC50 [9, 13] [µg/mL] | MIC90 [9, 13] [µg/mL] | also measured |
| --- | --- | --- | --- | --- | --- | --- | --- | --- | --- | --- | --- | --- | --- | --- | --- |
| C/C(=C\C(=O)OCCCCCCCCC(=O)O)C[C@@H]1OC[C@H](C[C@@H]2O[C@H]2[C@@H](C)[C@H](C)O)[C@@H](O)[C@H]1O [Mupirocin, mupirocin] | 17.5 | 0.125 to 32 | 0.5 (≈ 0.999 µM) | > 512 | 0.25 (≈ 0.499 µM) | 32 (≈ 63.9 µM) | 0.5 (≈ 0.999 µM) | > 512 | 0.25 (≈ 0.499 µM) | 512 (≈ 1020 µM) | – | – | – | – | Susceptibility of all strains, in words [1]: sensitive |
| CC[C@H](C)[C@H](NC(=O)[C@H](CCCCN)NC(=O)[C@H](CCCCN)NC(=O)[C@H](Cc1ccccc1)NC(=O)[C@H](CC(C)C)NC(=O)[C@H](CCCCN)NC(=O)[C@H](Cc1c[nH]c2ccccc12)NC(=O)[C@@H](N)CCCCN)C(=O)NCC(=O)N[C@@H](C)C(=O)N[C@H](C(=O)N[C@@H](CC(C)C)C(=O)N[C@@H](CCCCN)C(=O)N[C@H](C(=O)N[C@@H](CC(C)C)C(N)=O)C(C)C)C(C)C [CAMEL] (H-KWKLFKKIGAVLKVL-NH2) | – | – | – | – | – | – | – | – | – | – | 4 (≈ 2.26 µM) | 8 (≈ 4.52 µM) | 4 (≈ 2.26 µM) | 4 (≈ 2.26 µM) | MIC Range [8, 12]: 1 to 8 µg/mL; MIC Range [9, 13]: 2 to 128 µg/mL |
| CC1(C)S[C@@H]2[C@H](NC(=O)[C@H](N)c3ccccc3)C(=O)N2[C@H]1C(=O)O [Ampicillin, ampicillin] | 58.5 | 0.25 to 32 | 1 (≈ 2.86 µM) | 8 (≈ 22.9 µM) | 16 (≈ 45.8 µM) | 32 (≈ 91.6 µM) | 2 (≈ 5.72 µM) | 16 (≈ 45.8 µM) | 8 (≈ 22.9 µM) | 16 (≈ 45.8 µM) | – | – | – | – | Resistance (%), resistant strains [1]: 4% |
| CC(=O)NC[C@H]1CN(c2ccc(N3CCOCC3)c(F)c2)C(=O)O1 [Linezolid, linezolid] | – | 1 to 4 | 1 (≈ 2.96 µM) | 2 (≈ 5.93 µM) | 2 (≈ 5.93 µM) | 4 (≈ 11.9 µM) | 1 (≈ 2.96 µM) | 4 (≈ 11.9 µM) | 1 (≈ 2.96 µM) | 4 (≈ 11.9 µM) | – | – | – | – | Susceptibility of all strains, in words [1]: sensitive; MIC Range [8]: 0.5 to 4 µg/mL; MIC Range [9]: 0.25 to 4 µg/mL; Resistance of isolates, in words [2]: none of the isolates were resistant; MIC Range [10]: 0.25 to 32 µg/mL |
| CN(C)[C@@H]1C(O)=C(C(N)=O)C(=O)[C@@]2(O)C(O)=C3C(=O)c4c(O)cccc4[C@@](C)(O)[C@H]3C[C@@H]12 [Tetracycline, tetracycline] | 15.5 | 0.125 to 32 | 0.25 (≈ 0.563 µM) | 32 (≈ 72 µM) | 0.5 (≈ 1.13 µM) | 32 (≈ 72 µM) | 0.5 (≈ 1.13 µM) | 32 (≈ 72 µM) | 0.5 (≈ 1.13 µM) | 32 (≈ 72 µM) | – | – | – | – | MIC Range [8]: 0.0625 to 32 µg/mL; MIC Range [9]: 0.0625 to 32 µg/mL; MIC Range [10]: 0.125 to 64 µg/mL |
| CCCCCCCCCC(=O)N[C@@H](Cc1c[nH]c2ccccc12)C(=O)N[C@H](CC(N)=O)C(=O)N[C@@H](CC(=O)O)C(=O)N[C@@H]1C(=O)NCC(=O)N[C@@H](CCCN)C(=O)N[C@@H](CC(=O)O)C(=O)N[C@H](C)C(=O)N[C@@H](CC(=O)O)C(=O)NCC(=O)N[C@H](CO)C(=O)N[C@@H]([C@H](C)CC(=O)O)C(=O)N[C@@H](CC(=O)c2ccccc2N)C(=O)O[C@@H]1C [Daptomycin, daptomycin] | 54.7 | – | – | – | – | – | – | – | – | – | 2 (≈ 1.23 µM) | 2 (≈ 1.23 µM) | 2 (≈ 1.23 µM) | 4 (≈ 2.47 µM) | Resistance (%), resistant strains [1]: 4%; MIC Range [8, 12]: 0.125 to 4 µg/mL; MIC Range [9, 13]: 0.0625 to 4 µg/mL; MIC50 [3, 14]: 2 µg/mL (≈ 1.23 µM); MIC90 [3, 14]: 2 µg/mL (≈ 1.23 µM); MIC Range [3, 14]: 1 to 2 µg/mL; MIC [11]: 4 µg/mL (≈ 2.47 µM); minimum inhibitory concentration (MIC) [11]: 2 µg/mL (≈ 1.23 µM); MIC50 [10, 15]: 2 µg/mL (≈ 1.23 µM); MIC90 [10, 15]: 4 µg/mL (≈ 2.47 µM); MIC Range [10, 15]: 0.125 to 4 µg/mL |
| CC[C@H](C)[C@H](NC(=O)[C@H](CCCCN)NC(=O)[C@H](CCC(=O)O)NC(=O)[C@H](CCCCN)NC(=O)[C@H](CO)NC(=O)[C@H](CCCCN)NC(=O)[C@H](CCCNC(=N)N)NC(=O)[C@H](Cc1ccccc1)NC(=O)[C@H](Cc1ccccc1)NC(=O)[C@H](CC(=O)O)NC(=O)CNC(=O)[C@H](CC(C)C)NC(=O)[C@@H](N)CC(C)C)C(=O)NCC(=O)N[C@@H](CCCCN)C(=O)N[C@@H](CCC(=O)O)C(=O)N[C@@H](Cc1ccccc1)C(=O)N[C@@H](CCCCN)C(=O)N[C@@H](CCCNC(=N)N)C(=O)N[C@H](C(=O)N[C@H](C(=O)N[C@@H](CCC(N)=O)C(=O)N[C@@H](CCCNC(=N)N)C(=O)N[C@H](C(=O)N[C@@H](CCCCN)C(=O)N[C@@H](CC(=O)O)C(=O)N[C@@H](Cc1ccccc1)C(=O)N[C@@H](CC(C)C)C(=O)N[C@@H](CCCNC(=N)N)C(=O)N[C@@H](CC(N)=O)C(=O)N[C@@H](CC(C)C)C(=O)N[C@H](C(=O)N1CCC[C@H]1C(=O)N[C@@H](CCCNC(=N)N)C(=O)N[C@H](C(=O)N[C@@H](CCC(=O)O)C(=O)N[C@@H](CO)C(=O)O)[C@@H](C)O)C(C)C)[C@@H](C)CC)C(C)C)[C@@H](C)CC [LL-37] | – | – | – | – | – | – | – | – | – | – | 64 (≈ 14.2 µM) | 256 (≈ 57 µM) | 128 (≈ 28.5 µM) | > 512 | – |
